Test results published in patent US20220363686A1 (AiCuris GmbH & Co. KG, priority 2018, published 2022).
pEC50, pIC50: −log10 of the molar value.

Experiments:
[1] = Cell viability assay (AlamarBlue); conditions: human, HepAD38 cells
HBV = assay: Determination of HBV DNA from the supernatants of HepAD38 cells (anti-HBV activity); assay type: cell-based, hepatitis B virus; conditions: Hepatitis B virus, HePAD38, 144 h, HBV DNA in HepAD38 supernatant, day 6, qPCR; read-out: Cell Activity
Method in brief: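 HepAD38 cells (60,000/well) seeded in tetracycline-free medium to induce HBV, treated with half-log serial compound dilutions for 6 days at 37 °C. HBV DNA purified from filtered supernatant and quantified by real-time PCR against HBV plasmid standards; EC50 from relative copy numbers by non-linear regression.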

[2] = molecular target: HBV core protein (C-terminal truncated core protein containing 149 amino acids of the N-terminal assembly domain) (UniProt P03146); assay: Biochemical capsid assembly assay (fluorescence quenching); parameters: rows headed: Assembly Activity; other: BODIPY-FL labelled core protein, assembly started with NaCl, read after 6 min; conditions: read-out: Assembly Activity; BODIPY-FL labelled core protein, assembly started with NaCl, read after 6 min
Method in brief: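 N-terminal assembly domain (residues 1–149) plus C-terminal Cys150, E. coli-expressed, BODIPY-FL-maleimide labelled, used at 1.0–2.0 μM in 50 mM HEPES pH 7.5 with 0.5% DMSO. Assembly started with NaCl ([…]); fluorescence quenching (ex 477/em 525 nm) read after 6 min. 8-point compound series; EC50 by non-linear regression.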

Chain of HBV core protein (C-terminal truncated core protein containing 149 amino acids of the N-terminal assembly domain) (P03146 whole entry, the tested form may be a part): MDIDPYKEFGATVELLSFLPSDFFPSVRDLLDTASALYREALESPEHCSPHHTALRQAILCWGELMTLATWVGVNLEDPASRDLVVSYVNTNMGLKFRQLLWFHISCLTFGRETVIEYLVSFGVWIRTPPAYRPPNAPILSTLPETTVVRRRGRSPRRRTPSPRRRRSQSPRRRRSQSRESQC

| SMILES | CC50 at 6 days [1] [µM] | pEC50 (HBV) | pIC50 [2] |
| --- | --- | --- | --- |
| O=C(c1cc2ccccc2[nH]1)N1CCn2ncc(S(=O)(=O)N3CCOCC3)c2C1 [Example 38, 2-[3-(morpholine-4-sulfonyl)-4H,5H,6H,7H-pyrazolo[1,5-a]pyrazine-5-carbonyl]-1H-indole] | > 10 | > 6.00 | > 5.30 |
| CN(C(=O)c1cnn2c1CN(C(=O)c1cc3c(Cl)cc(F)cc3[nH]1)CC2)C1(COC(F)F)CC1 [Example 25, 5-(4-chloro-6-fluoro-1H-indole-2-carbonyl)-N-{1-[(difluoromethoxy)methyl]cyclopropyl}-N-methyl-4H,5H,6H,7H-pyrazolo[1,5-a]pyrazine-3-carboxamide] | > 10 | > 6.00 | > 5.30 |
| CN(C(=O)c1cnn2c1CN(C(=O)c1cc3c(Cl)cc(F)cc3[nH]1)CC2)C1(CO)CC1 [Example 85, 5-(4-chloro-6-fluoro-1H-indole-2-carbonyl)-N-[1-(hydroxymethyl)cyclopropyl]-N-methyl-4H,5H,6H,7H-pyrazolo[1,5-a]pyrazine-3-carboxamide] | > 10 | > 6.00 | > 5.30 |
| Cc1cc(F)cc2[nH]c(C(=O)N3CCn4ncc(C5CCC5)c4C3)cc12 [Example 4, 2-{3-cyclobutyl-4H,5H,6H,7H-pyrazolo[1,5-a]pyrazine-5-carbonyl}-6-fluoro-4-methyl-1H-indole] | > 10 | > 6.00 | > 5.30 |
| CC(C)OCC1(N(C)C(=O)c2cnn3c2CN(C(=O)c2cc4ccccc4[nH]2)CC3)CC1 [Example 11, 5-(1H-indole-2-carbonyl)-N-methyl-N-{1-[(propan-2-yloxy)methyl]cyclopropyl}-4H,5H,6H,7H-pyrazolo[1,5-a]pyrazine-3-carboxamide] | > 10 | > 6.00 | > 5.30 |
| CN(C(=O)c1cnn2c1CN(C(=O)c1cc3ccccc3[nH]1)CC2)C1COC1 [Example 135, 5-(1H-indole-2-carbonyl)-N-methyl-N-(oxetan-3-yl)-4H,5H,6H,7H-pyrazolo[1,5-a]pyrazine-3-carboxamide] | > 10 | > 6.00 | > 5.30 |
| CN1CCN(S(=O)(=O)c2cnn3c2CN(C(=O)c2cc4ccccc4[nH]2)CC3)CC1 [Example 36, 2-{3-[(4-methylpiperazin-1-yl)sulfonyl]-4H,5H,6H,7H-pyrazolo[1,5-a]pyrazine-5-carbonyl}-1H-indole] | > 10 | > 6.00 | 5.00 to 5.30 |
| CC1Cn2ncc(C(=O)N[C@H](C)C(F)(F)F)c2CN1C(=O)c1cc2cc(F)c(Cl)cc2[nH]1 (stereo partly drawn) [Example 147, 5-(6-chloro-5-fluoro-1H-indole-2-carbonyl)-6-methyl-N-[(2R)-1,1,1-trifluoropropan-2-yl]-4H,5H,6H,7H-pyrazolo[1,5-a]pyrazine-3-carboxamide] | > 10 | > 6.00 | > 5.30 |
| O=C(c1cc2ccccc2[nH]1)N1CCn2ncc(C(=O)N3CCC(O)CC34CC4)c2C1 (stereo not drawn) [Example 58, 4-[5-(1H-indole-2-carbonyl)-4H,5H,6H,7H-pyrazolo[1,5-a]pyrazine-3-carbonyl]-4-azaspiro[2.5]octan-7-ol] | > 10 | > 6.00 | > 5.30 |
| CC1Cn2ncc(C(=O)NC3(COC(F)F)CC3)c2CN1C(=O)c1cc2ccccc2[nH]1 (single isomer, unassigned) [Example 131, N-{1-[(difluoromethoxy)methyl]cyclopropyl}-5-(1H-indole-2-carbonyl)-6-methyl-4H,5H,6H,7H-pyrazolo[1,5-a]pyrazine-3-carboxamide] | > 10 | > 6.00 | > 5.30 |
| O=C(c1cc2ccccc2[nH]1)N1CCn2ncc(C(=O)N3CC(F)(F)CC34CC4)c2C1 [Example 19, 2-(3-{6,6-difluoro-4-azaspiro[2.4]heptane-4-carbonyl}-4H,5H,6H,7H-pyrazolo[1,5-a]pyrazine-5-carbonyl)-1H-indole] | > 10 | > 6.00 | > 5.30 |
| CN(C(=O)c1cnn2c1CN(C(=O)c1cc3ccccc3[nH]1)CC2)C1(c2ccncc2)CC1 [Example 46, 5-(1H-indole-2-carbonyl)-N-methyl-N-[1-(pyridin-4-yl)cyclopropyl]-4H,5H,6H,7H-pyrazolo[1,5-a]pyrazine-3-carboxamide] | > 10 | > 6.00 | > 5.30 |
| O=C(c1cc2c(F)c(F)ccc2[nH]1)N1CCn2ncc(C3CCC3)c2C1 [Example 3, 2-{3-cyclobutyl-4H,5H,6H,7H-pyrazolo[1,5-a]pyrazine-5-carbonyl}-4,5-difluoro-1H-indole] | > 10 | > 6.00 | > 5.30 |
| Cc1c(F)ccc2[nH]c(C(=O)N3CCn4ncc(C(=O)N5CCCOCC56CC6)c4C3)cc12 [Example 108, 4-[5-(5-fluoro-4-methyl-1H-indole-2-carbonyl)-4H,5H,6H,7H-pyrazolo[1,5-a]pyrazine-3-carbonyl]-8-oxa-4-azaspiro[2.6]nonane] | > 10 | > 6.00 | > 5.30 |
| CN(C(=O)c1cnn2c1CN(C(=O)c1cc3ccccc3[nH]1)CC2)C1([C@H]2OC[C@H](N)CO2)CC1 [Example 141, 5-(1H-indole-2-carbonyl)-N-methyl-N-{1-[(2r,5r)-5-amino-1,3-dioxan-2-yl]cyclopropyl}-4H,5H,6H,7H-pyrazolo[1,5-a]pyrazine-3-carboxamide] | > 10 | > 6.00 | > 5.30 |
| CC1Cn2ncc(C(=O)NC3(COC(F)F)CC3)c2CN1C(=O)c1cc2cc(F)c(Cl)cc2[nH]1 (stereo not drawn) [Example 93, 5-(6-chloro-5-fluoro-1H-indole-2-carbonyl)-N-{1-[(difluoromethoxy)methyl]cyclopropyl}-6-methyl-4H,5H,6H,7H-pyrazolo[1,5-a]pyrazine-3-carboxamide] | > 10 | > 6.00 | > 5.30 |
| COCC1(N(C)C(=O)c2cnn3c2CN(C(=O)c2cc4ccccc4[nH]2)C(C)C3)CC1 (single isomer, unassigned) [Example 17, 5-(1H-indole-2-carbonyl)-N-[1-(methoxymethyl)cyclopropyl]-N,6-dimethyl-4H,5H,6H,7H-pyrazolo[1,5-a]pyrazine-3-carboxamide] | > 10 | > 6.00 | 5.00 to 5.30 |
| COCC1(N(C)C(=O)c2cnn3c2CN(C(=O)c2cc4c(Cl)cccc4[nH]2)CC3)CC1 [Example 7, 5-(4-chloro-1H-indole-2-carbonyl)-N-[1-(methoxymethyl)cyclopropyl]-N-methyl-4H,5H,6H,7H-pyrazolo[1,5-a]pyrazine-3-carboxamide] | > 10 | > 6.00 | > 5.30 |
| O=C(NC1COC1)c1cnn2c1CN(C(=O)c1cc3ccccc3[nH]1)CC2 [Example 134, 5-(1H-indole-2-carbonyl)-N-(oxetan-3-yl)-4H,5H,6H,7H-pyrazolo[1,5-a]pyrazine-3-carboxamide] | > 10 | 5.00 to 6.00 | > 5.30 |
| O=C(c1cc2ccccc2[nH]1)N1CCn2ncc(C(=O)N3CCOCCC34CC4)c2C1 [Example 68, 4-[5-(1H-indole-2-carbonyl)-4H,5H,6H,7H-pyrazolo[1,5-a]pyrazine-3-carbonyl]-7-oxa-4-azaspiro[2.6]nonane] | > 10 | > 6.00 | > 5.30 |
| O=C(NC1(COC(F)F)CC1)c1cnn2c1CN(C(=O)c1cc3cc(F)c(Cl)cc3[nH]1)CC2 [Example 92, 5-(6-chloro-5-fluoro-1H-indole-2-carbonyl)-N-{1-[(difluoromethoxy)methyl]cyclopropyl}-4H,5H,6H,7H-pyrazolo[1,5-a]pyrazine-3-carboxamide] | > 10 | > 6.00 | > 5.30 |
| CNS(=O)(=O)c1cnn2c1CN(C(=O)c1cc3ccccc3[nH]1)CC2 [Example 41, 5-(1H-indole-2-carbonyl)-N-methyl-4H,5H,6H,7H-pyrazolo[1,5-a]pyrazine-3-sulfonamide] | > 10 | > 6.00 | > 5.30 |
| CN(C(=O)c1cnn2c1CN(C(=O)c1cc3c(F)c(F)ccc3[nH]1)CC2)C1(CO)CC1 [Example 81, 5-(4,5-difluoro-1H-indole-2-carbonyl)-N-[1-(hydroxymethyl)cyclopropyl]-N-methyl-4H,5H,6H,7H-pyrazolo[1,5-a]pyrazine-3-carboxamide] | > 10 | > 6.00 | > 5.30 |
| CN(C(=O)c1cnn2c1CN(C(=O)c1cc3ccccc3[nH]1)CC2)C1CCC1 [Example 133, N-cyclobutyl-5-(1H-indole-2-carbonyl)-N-methyl-4H,5H,6H,7H-pyrazolo[1,5-a]pyrazine-3-carboxamide] | > 10 | 5.00 to 6.00 | > 5.30 |
| CN(C(=O)c1cnn2c1CN(C(=O)c1cc3ccccc3[nH]1)CC2)C1(c2cccnc2)CC1 [Example 72, 5-(1H-indole-2-carbonyl)-N-methyl-N-[1-(pyridin-3-yl)cyclopropyl]-4H,5H,6H,7H-pyrazolo[1,5-a]pyrazine-3-carboxamide] | > 10 | > 6.00 | > 5.30 |
